Data reported in patent publication US20240299384A1, “METHODS FOR TREATING PULMONARY HYPERTENSION IN PATIENTS WITH LEFT VENTRICULAR ASSIST DEVICE IMPLANTATION” (ACTELION PHARMACEUTICALS LTD, priority 2021, published 2024).

Tested on: patients with PH post-LVAD implantation
Assay: Phase 2 study in PH post-LVAD implantation: adverse events (Safety Set)
Assay type: in vivo
Protocol: This is a double-blind, placebo-controlled, multicenter, parallel-group Phase 2 study assessing the efficacy and safety of macitentan in PH post-LVAD implantation. Approximately 57 adult patients with PH post-LVAD implantation were randomized (1:1) to receive either macitentan 10 mg, or matching placebo, once daily orally.
• Treatment-emergent AEs up to 30 days after treatment discontinuation. • AEs leading to premature discontinuation of treatment. • Death up to 30 days after treatment discontinuation. • Treatment-emergent SAEs up to 30 days after treatment discontinuation. • Change from Baseline to EOT in vital signs. • Occurrence of liver function test (ALT and/or AST) abnormality (≥3×ULN; ≥3 and <5×ULN; ≥5 and <8×ULN; ≥8×ULN) up to EOT. • Occurrence of ALT and/or AST abnormality ≥3×ULN associated with bilirubin ≥2×ULN up to EOT. • Proportion of patients with treatment-emergent hemoglobin abnormality (<10.0 g/dL, and <8.0 g/dL) as compared to Baseline up to EOT. • Treatment-emergent marked laboratory abnormalities up to EOT.
An AE is any adverse change, i.e., any unfavorable and unintended sign, including an abnormal laboratory finding, symptom, or disease that occurs in a patient. AEs include: • Exacerbation of a pre-existing disease. • Increase in frequency or intensity of a pre-existing episodic disease or medical condition. • Disease or medical condition detected or diagnosed even though it may have been present prior to the start of the treatment. • Continuous persistent disease or symptoms present at treatment start that worsen following the start. • Abnormal assessments, e.g., change on physical examination, ECG findings, if they represent a clinically significant finding that was not present at treatment start or worsened during the course of the treatment. • Laboratory test abnormalities if they represent a clinically significant finding, symptomatic or not, which was not present at treatment start or worsened during the course of the treatment or led to dose reduction, interruption or permanent discontinuation of treatment.
A treatment-emergent AE is any AE temporally associated with the use of treatment (from treatment initiation until 30 days after treatment discontinuation). Overdose, misuse, and abuse of the treatment may be considered an AE.
The intensity of clinical AEs is graded on a three-point scale-mild, moderate, severe. The three categories of intensity are defined as follows: • Mild: The event may be noticeable to the patient. […] Performance of daily activities may be influenced, and intervention may be needed. • Severe: The event may cause noticeable discomfort, and usually interferes with daily activities. The patient may not be able to continue, and treatment or intervention is usually needed.
An SAE is defined by the ICH guidelines as any AE fulfilling at least one of the following criteria: • Fatal. • Life-threatening: refers to an event in which the patient was at risk of death at the time of the event.
Safety Set (SS): The SS includes all patients receiving at least one dose of drug in the treatment period.
A treatment-emergent AE is any AE temporally associated with the use of a treatment. The number and percentage of patients experiencing treatment-emergent AEs and SAEs at least once are tabulated by treatment group and by: • MedDRA SOC and individual preferred term within each SOC, in descending order of incidence. • Frequency of patients with events coded with the same preferred term, in descending order of incidence.

[1] = AEs leading to treatment discontinuation, SS, N = 28
[2] = SMQs for anemia, hypotension, edema/fluid retention, 10 mg once daily, N = 28
[3] = frequently reported AEs, SS, N = 28
[4] = treatment-emergent, 10 mg once daily, N = 28

## CCCNS(=O)(=O)Nc1ncnc(OCCOc2ncc(Br)cn2)c1-c1ccc(Br)cc1 [Macitentan, propylsulfamic acid [5-(4-bromo-phenyl)-6-[2-(5-bromo-pyrimidin-2-yloxy)-ethoxy]-pyrimidin-4-yl]-amide]
10 mg once daily, N = 28
  Any Treatment-Related Adverse Event Leading to Treatment Discontinuation, number of patients: 2
  Any Treatment-Related Adverse Event Leading to Treatment Discontinuation, percent of patients: (7.1) %
[1]
  Acute kidney injury, number of patients: 1
  Acute kidney injury, percent of patients: 3.6%
  Anaemia, number of patients: 0
  Blood alkaline phosphatase increased, number of patients: 1
  Blood alkaline phosphatase increased, percent of patients: 3.6%
  Blood and lymphatic system disorders, number of patients: 0
  Blood bilirubin increased, number of patients: 1
  Blood bilirubin increased, percent of patients: 3.6%
  Cardiac disorders, number of patients: 1
  Cardiac disorders, percent of patients: 3.6%
  Cerebral haemorrhage, number of patients: 1
  Cerebral haemorrhage, percent of patients: 3.6%
  General disorders and administration site conditions, number of patients: 1
  General disorders and administration site conditions, percent of patients: 3.6%
  Haemolysis, number of patients: 0
  Haemorrhagic stroke, number of patients: 0
  International normalised ratio increased, number of patients: 1
  International normalised ratio increased, percent of patients: 3.6%
  Investigations, number of patients: 1
  Investigations, percent of patients: 3.6%
  Liver function test increased, number of patients: 1
  Liver function test increased, percent of patients: 3.6%
  Nervous system disorders, number of patients: 1
  Nervous system disorders, percent of patients: 3.6%
  Oedema peripheral, number of patients: 1
  Oedema peripheral, percent of patients: 3.6%
  Renal and urinary disorders, number of patients: 1
  Renal and urinary disorders, percent of patients: 3.6%
  Right ventricular failure, number of patients: 1
  Right ventricular failure, percent of patients: 3.6%
[2]
  Any Events of Interest, number of patients: 10
  Any Events of Interest, percent of patients: (35.7) %
SS, 10 mg once daily, N = 28
  Any Adverse Event Leading to Treatment Discontinuation, number of patients: 4
Early post-LVAD population, 10 mg once daily
  tolerability in words: well tolerated
[3]
  Acute kidney injury, number of patients: 3
  Acute kidney injury, percent of patients: (10.7) %
  Anticoagulation drug level below therapeutic, number of patients: 4
  Anticoagulation drug level below therapeutic, percent of patients: (14.3) %
  Complication associated with device, number of patients: 0
  Cystatin C increased, number of patients: 3
  Cystatin C increased, percent of patients: (10.7) %
  Dehydration, number of patients: 0
  Dizziness, number of patients: 4
  Dizziness, percent of patients: (14.3) %
  Dyspnoea, number of patients: 4
  Dyspnoea, percent of patients: (14.3) %
  Fall, number of patients: 0
  Fatigue, number of patients: 4
  Fatigue, percent of patients: (14.3) %
  Hyperkalaemia, number of patients: 3
  Hyperkalaemia, percent of patients: (10.7) %
  Hypotension, number of patients: 3
  Hypotension, percent of patients: (10.7) %
  N-terminal prohormone brain natriuretic peptide increased, number of patients: 4
  N-terminal prohormone brain natriuretic peptide increased, percent of patients: (14.3) %
  Oedema peripheral, number of patients: 4
  Oedema peripheral, percent of patients: (14.3) %
  Ventricular tachycardia, number of patients: 1
  Ventricular tachycardia, percent of patients: (3.6) %
  Vomiting, number of patients: 2
  Vomiting, percent of patients: (7.1) %
post-LVAD implantation patients, 10 mg once daily
  safety profile in words: favorable safety profile
Serious AEs, N = 28
  Acute kidney injury, number of patients: 2
  Acute kidney injury, percent of patients: (7.1) %
  Anticoagulation drug level below therapeutic level, number of patients: 3
  Anticoagulation drug level below therapeutic level, percent of patients: (10.7) %
  Complication associated with device, number of patients: 0
  Dehydration, number of patients: 0
  Gastrointestinal hemorrhage, number of patients: 0
  Pleural effusion, number of patients: 2
  Pleural effusion, percent of patients: (7.1) %
  Right ventricular failure, number of patients: 2
  Right ventricular failure, percent of patients: (7.1) %
  Septic shock, number of patients: 2
  Septic shock, percent of patients: (7.1) %
  Ventricular tachycardia, number of patients: 0
[4]
  Any Adverse Event With Outcome of Death, number of patients: 1
  Any Adverse Event With Outcome of Death, percent of patients: (3.6) %
  Any Adverse Event, number of patients: 26
  Any Adverse Event, percent of patients: (92.9) %
  Any Serious Adverse Event, number of patients: 16
  Any Serious Adverse Event, percent of patients: (57.1) %
  Any Severe Adverse Event, number of patients: 9
  Any Severe Adverse Event, percent of patients: (32.1) %
  Any Severe Treatment-Related Adverse Event, number of patients: 2
  Any Severe Treatment-Related Adverse Event, percent of patients: (7.1) %
  Any Treatment-Related Adverse Event, number of patients: 6
  Any Treatment-Related Adverse Event, percent of patients: (21.4) %
  Any Treatment-Related Serious Adverse Event, number of patients: 2
  Any Treatment-Related Serious Adverse Event, percent of patients: (7.1) %
